These results are taken from PubChem BioAssay (NCI).

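Tested at 5 concentrations; 48 h exposure; 96-well plates; endpoints linearly interpolated, else capped at highest concentration. GI50: concentration for 50% inhibition of growth. TGI: concentration producing complete growth inhibition.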

Among the test systems are UO-31 renal; SF-539 CNS; CAKI-1 renal; SK-OV-3 ovarian; U251 CNS; SF-268 CNS; SK-MEL-28 melanoma; CCRF-CEM leukemia; OVCAR-3 ovarian; TK-10 renal.
Holding throughout (assay): growth of human tumour cells (NCI), 48 h

In the case of `O=C1CC(c2cccc(Cl)c2)Oc2ccccc21` (stereo not drawn), the TGI in the experiment on UO-31 renal was 27.6 µM; in the experiment with SF-539 CNS, 36.3 µM; with CAKI-1 renal it was 23.3 µM; in the experiment with SK-OV-3 ovarian it was 46 µM; in the experiment on U251 CNS, more than 100 µM; with SF-268 CNS, 50.6 µM. For the same compound, the figures for the TGI in the experiment with SK-MEL-28 melanoma and in the experiment on CCRF-CEM leukemia were 42.2 µM and 48.4 µM, respectively.
Regarding `CC(C)[P+](c1ccccc1)(c1ccccc1)c1ccccc1`, the GI50 in the experiment with UO-31 renal was more than 100 µM; with SF-539 CNS, 15.6 µM; in the experiment on CAKI-1 renal, 50.7 µM; with SK-OV-3 ovarian, 22.4 µM; with U251 CNS it was 4.11 µM; in the experiment on OVCAR-3 ovarian, 4.49 µM. In addition, the figures for the GI50 in the experiment with SF-268 CNS, in the experiment with SK-MEL-28 melanoma and in the experiment on CCRF-CEM leukemia were 5.11 µM, 21.2 µM and 4.2 µM, respectively. The TGI in the experiment with UO-31 renal, in the experiment on SF-539 CNS, in the experiment with CAKI-1 renal, in the experiment with SK-OV-3 ovarian, with U251 CNS and in the experiment on OVCAR-3 ovarian was more than 100 µM throughout. Moreover, the TGI in the experiment with SF-268 CNS, in the experiment with SK-MEL-28 melanoma and in the experiment with CCRF-CEM leukemia was more than 100 µM each time.
Take `COC(=O)C(=O)C(C(=O)C(=O)Nc1ccccc1[N+](=O)[O-])c1nc2ccc([N+](=O)[O-])cc2[nH]c1=O` (stereo not drawn): the TGI with UO-31 renal, with CAKI-1 renal, in the experiment on SK-OV-3 ovarian, with U251 CNS, in the experiment on SF-268 CNS and with SK-MEL-28 melanoma was more than 100 µM each time. In the experiment with CCRF-CEM leukemia, this compound yielded a TGI of more than 100 µM.
In the case of `O=C1CS/C(=N/S(=O)(=O)c2ccc(N3N=C4c5ccccc5CC4C3c3cccs3)cc2)N1C(=O)c1ccccc1` (stereo not drawn), the GI50 with UO-31 renal is more than 100 µM; with SF-539 CNS, 44.6 µM; in the experiment on CAKI-1 renal, 63.9 µM; in the experiment with SK-OV-3 ovarian, more than 100 µM; in the experiment with U251 CNS, 36.3 µM; in the experiment on OVCAR-3 ovarian, 59.2 µM. Moreover, the GI50 was more than 100 µM with SF-268 CNS, more than 100 µM in the experiment with SK-MEL-28 melanoma and 37.5 µM in the experiment with CCRF-CEM leukemia. Further, the TGI in the experiment on UO-31 renal, in the experiment on SF-539 CNS, with CAKI-1 renal, in the experiment on SK-OV-3 ovarian, in the experiment with U251 CNS and with OVCAR-3 ovarian was more than 100 µM each time. In addition, the TGI in the experiment with SF-268 CNS, in the experiment on SK-MEL-28 melanoma and in the experiment on CCRF-CEM leukemia was more than 100 µM each time.
For `C1CSC[C@H]2COC[C@@H](CSCCS1)S2`, the TGI in the experiment on UO-31 renal, in the experiment on SF-539 CNS, in the experiment with TK-10 renal, in the experiment with U251 CNS, in the experiment on OVCAR-3 ovarian and with SF-268 CNS was more than 100 µM throughout. Further, the TGI in the experiment with SK-MEL-28 melanoma and with CCRF-CEM leukemia was more than 100 µM each time.
Turning to `Cc1cc(=O)[nH]c(N/N=C/c2ccccc2O)n1`, the GI50 is 5.3 µM in the experiment with UO-31 renal; 7.06 µM in the experiment with SF-539 CNS; 5.19 µM in the experiment on CAKI-1 renal; 6.88 µM with SK-OV-3 ovarian; 6.01 µM with U251 CNS; 4.15 µM in the experiment with OVCAR-3 ovarian. In addition, the GI50 was 7.75 µM in the experiment on SF-268 CNS, 25.3 µM in the experiment on SK-MEL-28 melanoma and 4.02 µM in the experiment with CCRF-CEM leukemia. The TGI in the experiment on UO-31 renal, in the experiment with SF-539 CNS, in the experiment with CAKI-1 renal, with SK-OV-3 ovarian, with U251 CNS and with OVCAR-3 ovarian was more than 100 µM throughout. The TGI in the experiment on SF-268 CNS, in the experiment on SK-MEL-28 melanoma and in the experiment on CCRF-CEM leukemia was more than 100 µM in each case.
Regarding `C=C(C)[C@@H]1CCc2c(O)c(O)c(=O)cc(C)c2C1`, the TGI was more than 25.5 µM in the experiment on UO-31 renal; 7.4 µM with SF-539 CNS; 10.9 µM in the experiment on CAKI-1 renal; 43.7 µM in the experiment with TK-10 renal; more than 100 µM in the experiment on SK-OV-3 ovarian; more than 100 µM with U251 CNS. Also, the TGI was more than 100 µM in the experiment on SF-268 CNS and more than 77.2 µM in the experiment on SK-MEL-28 melanoma.
Consider `CC(C)N(C(=O)C12C3C4C5(C(=O)O)C(C1C35I)C42C(=O)O)C(C)C` (stereo not drawn), for which the TGI with UO-31 renal, with SF-539 CNS, with TK-10 renal, in the experiment on SK-OV-3 ovarian, in the experiment on U251 CNS and with OVCAR-3 ovarian was more than 100 µM throughout. Besides, the TGI in the experiment on SF-268 CNS, in the experiment with SK-MEL-28 melanoma and in the experiment on CCRF-CEM leukemia was more than 100 µM in each case.
As to `COc1ccc(NC(=O)CC(=O)N/N=C(\C)c2cc3ccccc3oc2=O)cc1`, the TGI in the experiment on UO-31 renal, with SF-539 CNS, in the experiment with TK-10 renal, in the experiment on SK-OV-3 ovarian, with U251 CNS and in the experiment with OVCAR-3 ovarian was more than 100 µM each time. Moreover, the TGI in the experiment with SK-MEL-28 melanoma and with CCRF-CEM leukemia was more than 100 µM throughout.
With `CC12OC(C(=O)C13CC3)C1C(=O)c3c(O)ccc(O)c3C(=O)C12` (stereo not drawn), the GI50 in the experiment on UO-31 renal was 22.8 µM; in the experiment with SF-539 CNS it was 19.4 µM; in the experiment on CAKI-1 renal, 4.68 µM; in the experiment with TK-10 renal, 15.6 µM; in the experiment on SK-OV-3 ovarian, 24.6 µM; in the experiment on U251 CNS, 14.7 µM. The GI50 was 15.1 µM in the experiment with SF-268 CNS and 24.6 µM in the experiment on SK-MEL-28 melanoma. For the same compound, the TGI is 55.6 µM in the experiment with UO-31 renal; 49.9 µM in the experiment with SF-539 CNS; 17.9 µM in the experiment with CAKI-1 renal; 35.2 µM with TK-10 renal; 78 µM in the experiment with SK-OV-3 ovarian; 31.1 µM in the experiment on U251 CNS. The values for the TGI in the experiment with SF-268 CNS and in the experiment on SK-MEL-28 melanoma were 45.8 µM and 78.7 µM, respectively.
Turning to `O=C(O)c1c2c(cc3c(=O)c4ccccc4[nH]c13)CCCC2`, the TGI in the experiment with UO-31 renal, in the experiment with SF-539 CNS, with TK-10 renal, in the experiment on SK-OV-3 ovarian, in the experiment on OVCAR-3 ovarian and in the experiment with SF-268 CNS was more than 100 µM in each case. The TGI in the experiment with SK-MEL-28 melanoma and in the experiment with CCRF-CEM leukemia was more than 100 µM in each case.
Consider `CC(C)(C)c1ccc(C2CC(=O)C3=C(C2)Nc2ccccc2N(C(=O)c2ccccc2Cl)C3c2ccc(F)cc2)cc1` (stereo not drawn), for which the GI50 with UO-31 renal, in the experiment on SF-539 CNS, with CAKI-1 renal, in the experiment on SK-OV-3 ovarian, with U251 CNS and with OVCAR-3 ovarian was more than 100 µM throughout. In addition, the GI50 in the experiment on SF-268 CNS, in the experiment with SK-MEL-28 melanoma and in the experiment with CCRF-CEM leukemia was more than 100 µM in each case. The TGI in the experiment with UO-31 renal, in the experiment with SF-539 CNS, in the experiment with CAKI-1 renal, with SK-OV-3 ovarian, with U251 CNS and in the experiment on OVCAR-3 ovarian was more than 100 µM throughout. Moreover, the TGI with SF-268 CNS, in the experiment with SK-MEL-28 melanoma and in the experiment on CCRF-CEM leukemia was more than 100 µM throughout.
`CN(C)C=N[C@@H](C(=O)O)c1ccccc1`: the TGI in the experiment with UO-31 renal, in the experiment on TK-10 renal, with SK-OV-3 ovarian, in the experiment on U251 CNS, with OVCAR-3 ovarian and with SF-268 CNS was more than 100 µM each time. Further, the TGI in the experiment on SK-MEL-28 melanoma and in the experiment with CCRF-CEM leukemia was more than 100 µM throughout.
Regarding `COc1cc(Cc2c(C)cc(OC)c3[nH]c4ccccc4c23)cc2c1[nH]c1ccccc12`, the GI50 in the experiment on UO-31 renal was 6.05 µM; with SF-539 CNS, 4.61 µM; with TK-10 renal, 12 µM; in the experiment on SK-OV-3 ovarian it was 8.8 µM; in the experiment on U251 CNS, 4.96 µM; in the experiment with SF-268 CNS, 6.97 µM. Also, the results for the GI50 in the experiment with SK-MEL-28 melanoma and in the experiment on CCRF-CEM leukemia were 8.61 µM and 8.59 µM, respectively. In addition, the TGI is 18.6 µM in the experiment with UO-31 renal; 9.23 µM in the experiment with SF-539 CNS; more than 25 µM in the experiment on TK-10 renal; more than 25 µM in the experiment with SK-OV-3 ovarian; 9.84 µM in the experiment with U251 CNS; 12.3 µM with OVCAR-3 ovarian. Also, the TGI with SF-268 CNS is 24.9 µM; in the experiment with SK-MEL-28 melanoma, more than 25 µM; in the experiment on CCRF-CEM leukemia, more than 25 µM.
On to `Cc1ccccc1-n1c(=S)[nH]c2c(sc(=O)n2-c2ccccc2C)c1=O`, for which the TGI in the experiment on UO-31 renal, in the experiment with SF-539 CNS, with CAKI-1 renal, in the experiment with SK-OV-3 ovarian, in the experiment with U251 CNS and in the experiment on OVCAR-3 ovarian was more than 100 µM in each case. Further, the TGI in the experiment on SF-268 CNS, in the experiment on SK-MEL-28 melanoma and with CCRF-CEM leukemia was more than 100 µM throughout.
In the case of `COC(=O)c1onc(C2OC(C)(C)OC2C(O)COC(c2ccccc2)(c2ccccc2)c2ccccc2)c1C(=O)OC` (stereo not drawn), the TGI in the experiment on UO-31 renal, in the experiment with SF-539 CNS, in the experiment on TK-10 renal, in the experiment with U251 CNS, in the experiment with OVCAR-3 ovarian and in the experiment with SF-268 CNS was more than 100 µM in each case. The TGI in the experiment on SK-MEL-28 melanoma and in the experiment on CCRF-CEM leukemia was more than 100 µM in each case.
Consider `COc1ccc(N2C(=O)[C@@H](N=[N+]=[N-])[C@@H]2[C@H]2COC(C)(C)O2)cc1`, for which the TGI in the experiment on UO-31 renal, in the experiment on SF-539 CNS, in the experiment on CAKI-1 renal, in the experiment with SK-OV-3 ovarian, in the experiment on U251 CNS and in the experiment with OVCAR-3 ovarian was more than 100 µM throughout. For the same compound, the TGI in the experiment on SF-268 CNS, with SK-MEL-28 melanoma and in the experiment with CCRF-CEM leukemia was more than 100 µM in each case.
Take `CCOC(=O)[C@@]12C(C)=CC(=O)O[C@]1(C)C1C(=O)NC(=O)C12` (stereo partly drawn): the TGI with UO-31 renal, with SF-539 CNS, in the experiment with TK-10 renal, in the experiment with SK-OV-3 ovarian, in the experiment with U251 CNS and in the experiment with OVCAR-3 ovarian was more than 100 µM throughout. Further, the TGI with SK-MEL-28 melanoma and in the experiment with CCRF-CEM leukemia was more than 100 µM each time.
